Results on 68 compounds are retold here after patent publication US20260053861A1, “CELL COMPOSITIONS AND METHODS OF USING THE SAME” (THE REGENTS OF THE UNIVERSITY OF CALIFORNIA, priority 2022, published 2026).

Where a name gives a salt, the structure may show the parent alone.

The test system of the first test is hPSC-SCs.
Settings: not given
On to `CC(=O)O[C@H]1C[C@H](O[C@H]2[C@@H](O)C[C@H](O[C@H]3[C@@H](O)C[C@H](O[C@H]4CC[C@@]5(C)[C@H](CC[C@@H]6[C@@H]5C[C@@H](O)[C@]5(C)[C@@H](C7=CC(=O)OC7)CC[C@]65O)C4)O[C@@H]3C)O[C@@H]2C)O[C@H](C)[C@H]1O[C@@H]1O[C@H](CO)[C@@H](O)[C@H](O)[C@H]1O` [Lanatoside C], for which the z.score.t is listed as −2.334. As for `CC1=CC(=O)C2=C(C)CC[C@@H]3[C@H](OC(=O)[C@H]3C)[C@@H]12` [Leucomisine], the z.score.t was 1.214.

`C[C@H](N)[C@H](O)c1ccc(O)c(O)c1` [Levonordefrin] returned a z.score.t of 0.1916. Same read-out and setting: the same measure for `CCC(=O)O[C@@](Cc1ccccc1)(c1ccccc1)[C@@H](C)CN(C)C` [Levopropoxyphene napsylate]: −0.5351.

Regarding `CCN(CC)CC(=O)Nc1c(C)cccc1C.Cl` [LidocaÂ<ne hydrochloride], the z.score.t was −0.01953. Same read-out and setting: the same measure for `CN1[C@@H](C[C@@H](O)c2ccccc2)CCC[C@H]1C[C@H](O)c1ccccc1.Cl` [Lobelanidine hydrochloride]: −0.3319; for `CN1[C@@H](CC(=O)c2ccccc2)CCC[C@H]1C[C@H](O)c1ccccc1.Cl` [Lobeline alpha (−) hydrochoride]: −0.2904; for `CN(C)C(=O)C(CCN1CCC(O)(c2ccc(Cl)cc2)CC1)(c1ccccc1)c1ccccc1` [Loperamide hydrochloride]: −1.329. Still for that read-out and setting: the same measure for `COC1=C[C@@H]2C3=C([C@@H]2C1=O)[C@@H](NC(C)=O)CCc1cc(OC)c(OC)c(OC)c13` [Lumicolchicine gamma]: 1.528; for `CN1C[C@H](CO)C=C2c3cccc4[nH]cc(c34)C[C@H]21` [Lysergol]: 0.1979. Still for that read-out and setting: the same measure for `CN(C)CCOC(=O)COc1ccc(Cl)cc1` [Meclofenoxate hydrochloride]: −2.264; for `CCC1(c2cccc(O)c2)CCCCN(C)C1` (centres unmarked) [Meptazinol hydrochloride]: 0.01078; for `COC(=O)Nc1nc2ccc(SC(C)C)cc2[nH]1` [Methiazole]: −1.263.

Staying with this test, now noted: HTS viability of hPSC-SCs in the presence of 30 mM glucose; Prestwick library; Table S4.
For `O=C(O)[C@H](O)[C@@H](O)[C@H](O[C@@H]1O[C@H](CO)[C@H](O)[C@H](O)[C@H]1O)[C@H](O)CO` [Lactobionic acid], the z.score.t is 1.942. On the same count and under the same terms, the same measure for `Cc1c(OCC(F)(F)F)ccnc1C[S+]([O-])c1nc2ccccc2[nH]1` (centres unmarked) [Lansoprazole]: 1.808. Still for that read-out and setting: the same measure for `CC[C@@H](C(=O)[C@@H](C)[C@@H](O)[C@H](C)CCc1ccc(C)c(O)c1C(=O)O)[C@H]1O[C@](CC)([C@H]2CC[C@](O)(CC)[C@H](C)O2)C[C@@H]1C` [Lasalocid sodium salt]: −2.368; for `Cc1oncc1C(=O)Nc1ccc(C(F)(F)F)cc1` [Leflunomide]: 0.9178; for `N#Cc1ccc(C(c2ccc(C#N)cc2)n2cncn2)cc1` [Letrozole]: −0.4953.

Regarding `c1ccc([C@H]2CN3CCSC3=N2)cc1` [Levamisole hydrochloride], the z.score.t is given as 0.4064. On the same count and under the same terms, as for `C[C@@H]1CN([C@H]2CC[C@](C#N)(c3ccc(F)cc3)CC2)CC[C@]1(C(=O)O)c1ccccc1` [Levocabastine hydrochloride], the figure is −0.6516; as for `N[C@@H](Cc1ccc(O)c(O)c1)C(=O)O` [Levodopa], −1.365; as for `Cc1cccc(C)c1NC(=O)CN1CCN(CCCC(c2ccc(F)cc2)c2ccc(F)cc2)CC1` [Lidoflazine], −1.03. The same measure, in the same setting: as for `CCC[C@@H]1C[C@@H](C(=O)N[C@@H]([C@H]2O[C@H](SC)[C@H](O)[C@@H](O)[C@H]2O)[C@@H](C)O)N(C)C1` [Lincomycin hydrochloride], the figure is 0.1446; as for `N[C@@H](Cc1cc(I)c(Oc2ccc(O)c(I)c2)c(I)c1)C(=O)O` [Liothyronine], −1.539; as for `NCCCC[C@H](N[C@@H](CCc1ccccc1)C(=O)O)C(=O)N1CCC[C@H]1C(=O)O` [Lisinopril], 0.08508. On to `C[C@H](CCC(=O)O)[C@H]1CC[C@H]2[C@@H]3CC[C@@H]4C[C@H](O)CC[C@]4(C)[C@H]3CC[C@]12C` [Lithocholic acid], for which the z.score.t is −0.7945.

`CCn1cc(C(=O)O)c(=O)c2cc(F)c(N3CCNC(C)C3)c(F)c21` (centres unmarked) [Lomefloxacin hydrochloride]: the z.score.t was −0.9109. The same measure, in the same setting: the same measure for `CCCCCN(CCCCC)C(=O)C(CCC(=O)O)NC(=O)c1ccc(Cl)c(Cl)c1` (centres unmarked) [Lorglumide sodium salt]: 1.824.

Turning to `CC[C@H](C)C(=O)O[C@H]1C[C@@H](C)C=C2C=C[C@H](C)[C@H](CC[C@@H]3C[C@@H](O)CC(=O)O3)[C@H]21` [Lovastatin], the z.score.t is given as −0.865.

As to `CN1CCN(C2=Nc3ccccc3Oc3ccc(Cl)cc32)CC1` [Loxapine succinate], the z.score.t is −0.2278. Same read-out and setting: as for `O=c1cc(-c2ccc(O)c(O)c2)oc2cc(O)cc(O)c12` [Luteolin], the figure is −0.7945; as for `CN(C)[C@@H]1C(O)=C(C(=O)NCNCCCC[C@H](N)C(=O)O)C(=O)[C@@]2(O)C(O)=C3C(=O)c4c(O)cccc4[C@@](C)(O)[C@H]3C[C@@H]12` [Lymecycline], −0.5745; as for `C#C[C@]1(O)CC[C@H]2[C@@H]3CCC4=CCCC[C@@H]4[C@H]3CC[C@@]21C` [Lynestrenol], −1.847.

As to `NCc1ccc(S(N)(=O)=O)cc1` [Mafenide hydrochloride], the z.score.t was −0.4019. Still for that read-out and setting: as for `CNCCCC12CCC(c3ccccc31)c1ccccc12` [Maprotiline hydrochloride], the figure is −0.865; as for `COC(=O)Nc1nc2ccc(C(=O)c3ccccc3)cc2[nH]1` [Mebendazole], −1.584; as for `CCN(CCCCOC(=O)c1ccc(OC)c(OC)c1)C(C)Cc1ccc(OC)cc1` (centres unmarked) [Mebeverine hydrochloride], −0.3301. Same read-out and setting: as for `CN1CCc2c(c3ccccc3n2Cc2ccccc2)C1.O=S(=O)(O)c1cccc2c(S(=O)(=O)O)cccc12` [Mebhydroline 1,5-naphtalenedisulfonate], the figure is 0.7312; as for `CNC1(C)C2CCC(C2)C1(C)C` (centres unmarked) [Mecamylamine hydrochloride], 0.3097. Still for that read-out and setting: the same measure for `C=C1c2c(Cl)ccc(O)c2C(=O)C2=C(O)[C@]3(O)C(=O)C(C(N)=O)=C(O)[C@@H](N(C)C)[C@@H]3[C@@H](O)[C@H]12.O=C(O)c1cc(S(=O)(=O)O)ccc1O` [Meclocycline sulfosalicylate]: 1.049. For the compound `Cc1cccc(CN2CCN(C(c3ccccc3)c3ccc(Cl)cc3)CC2)c1` (centres unmarked) [Meclozine dihydrochloride], the z.score.t is listed as −1.823. On the same count and under the same terms, as for `CC(=O)[C@H]1CC[C@H]2[C@@H]3C[C@H](C)C4=CC(=O)CC[C@]4(C)[C@H]3[C@@H](O)C[C@]12C` [Medrysone], the figure is 0.1244.

For `Cc1cccc(Nc2ccccc2C(=O)O)c1C` [Mefenamic acid], the z.score.t came out at 1.751. Still for that read-out and setting: the same measure for `CCN(CC)CCNC(=O)COc1ccc(OC)cc1` [Mefexamide hydrochloride]: 0.189.

With `OC(c1cc(C(F)(F)F)nc2c(C(F)(F)F)cccc12)C1CCCCN1` (centres unmarked) [Mefloquine hydrochloride], the z.score.t is −1.637. The same measure, in the same setting: as for `CNC[C@H](O)[C@@H](O)[C@H](O)[C@H](O)CO` [Meglumine], the figure is −0.9741. The same measure, in the same setting: as for `COc1ccc2[nH]cc(CCNC(C)=O)c2c1` [Melatonin], the figure is 0.006455; as for `Cc1cnc(NC(=O)C2=C(O)c3ccccc3S(=O)(=O)N2C)s1` [Meloxicam], 1.481; as for `CC12CC3CC(C)(C1)CC(N)(C3)C2` [Memantine Hydrochloride], −0.9598. Turning to `CC1=CC(=O)c2ccccc2C1=O` [Menadione], the z.score.t is −1.949. On the same count and under the same terms, as for `C[N+]1(C)CCCC(OC(=O)C(O)(c2ccccc2)c2ccccc2)C1` (centres unmarked) [Mepenzolate bromide], the figure is 0.03421; as for `Cc1ccccc1OCC(O)CO` (centres unmarked) [Mephenesin], −1.753; as for `CCC1(c2ccccc2)NC(=O)N(C)C1=O` (centres unmarked) [Mephenytoin], −0.9817. `CCCNC(C)(C)COC(=O)c1ccccc1` [Meprylcaine hydrochloride]: the z.score.t is given as −0.4953.

Turning to `Nc1ccc(O)c(C(=O)O)c1` [Mesalamine], the z.score.t is −0.5745. Same read-out and setting: the same measure for `CN1CCCCC1CCN1c2ccccc2Sc2ccc([S+](C)[O-])cc21` (centres unmarked) [Mesoridazine besylate]: 0.2816; for `C=N[C@@H](C(=O)N[C@@H]1C(=O)N2[C@@H]1SC(C)(C)[C@@H]2C(=O)O)c1ccccc1` [Metampicillin sodium salt]: −1.069. Same read-out and setting: as for `CNCC(O)c1ccc(O)c(OC)c1.Cl` (stereo not drawn) [Metanephrine hydrochloride DL], the figure is 1.259; as for `C[C@H](N)[C@H](O)c1cccc(O)c1` [Metaraminol bitartrate], 1.088. Same read-out and setting: as for `CN1C[C@H](CNC(=O)OCc2ccccc2)C[C@@H]2c3cccc4c3c(cn4C)C[C@H]21` [Metergoline], the figure is 1.211. With `CN(C)C(=N)N=C(N)N` [Metformin hydrochloride], the z.score.t was 0.8639. The same measure, in the same setting: the same measure for `CC(=O)OC(C)C[N+](C)(C)C` (centres unmarked) [Methacholine chloride]: 1.554. Still for that read-out and setting: the same measure for `C=C1c2cccc(O)c2C(=O)C2=C(O)[C@]3(O)C(=O)C(C(N)=O)=C(O)[C@@H](N(C)C)[C@@H]3[C@@H](O)[C@H]12` [Methacycline hydrochloride]: −0.4684. In the case of `CC[N+](C)(CC)CCOC(=O)C1c2ccccc2Oc2ccccc21` [Methantheline bromide], the z.score.t is on record as −0.3173. On the same count and under the same terms, as for `CN(C)CCN(Cc1cccs1)c1ccccn1` [Methapyrilene hydrochloride], the figure is 0.1344; as for `CC(=O)/N=c1/sc(S(N)(=O)=O)nn1C` [Methazolamide], −0.3678; as for `Cn1cc[nH]c1=S` [Methimazole], −0.05622. On to `CS(=N)(=O)CC[C@H](N)C(=O)O` (some centres unmarked) [Methionine sulfoximine (L)], for which the z.score.t is reported as 1.124.
